Experimental data published in patent US20150175599A1, “FAAH Inhibitors” (Ironwood Pharmaceuticals, Inc., priority 2010, published 2015).

Molecular target: T1, human cannabinoid receptor, CB1 (Homo sapiens, UniProt P21554)
T1 construct: (cDNA clone) CNR01L000; membranes prepared from it
Assay: Human CB1 cannabinoid receptor radioligand binding assay ([3H]-CP 55,940)
Conditions: Table 4
Description: cDNA expression clones for human CB1 (hCB 1, Genbank Accession No. AY225225) expressed in vector pcDNA3.1+ were purchased from UMR cDNA Resource Center, Rolla, Mo. (Clone ID CNR01L000 for hCB 1).
Stable, HEK-293-derived cell lines that recombinantly express hCB 1 were established. In brief, the clone hCB 1 (CNR1L) was transfected into human embryonic kidney cells (HEK-293) using Lipofectamine 2000 (Gibco, Cat#11668-019) according to the manufacturer's protocol. Transfected clones were isolated by single colony purification and clones were screened for receptor expression using a whole cell, ^3H-CP 55,940 radioligand binding assay. HEK-293 stable cells were maintained in Dulbecco's modified Eagles medium (DMEM) containing 10% fetal bovine serum, 2 mM L-glutamine and 0.5 mg/mL G-418.
Membranes were isolated from transfected cells as follows. Monolayers of cultured cells were washed twice with phosphate-buffered saline (PBS). […] Protein concentration of membrane suspensions were measured by Bradford Protein Assay using bovine serum albumin as the standard (BioRad catalog #500-0006). […]
Radioligand binding assays were performed by incubating membranes (2-10 ug protein) prepared from HEK-293 cells expressing recombinant human cannabinoid receptor, CB1, at room temperature with 0.5 nM cannabinoid receptor agonist, [^3H]-CP 55,940 (Perkin Elmer, catalog #NET1051) in 0.2 mL of binding buffer (50 mM Tris-HCl, pH 7.5, 5 mM MgCl2, 2.5 mM EDTA) and 0.1% fatty acid free bovine serum albumin (Sigma Cat. #A0821) for 90 minutes. […] The radioactivity bound to the filters was counted with 0.05 mL of liquid scintillant (UltraGold MV, PerkinElmer catalog #6013159) in a scintillation counter (Perkin Elmer Microbeta instrument). Nonspecific binding was determined in the presence of unlabeled 1 uM CP 55,940 (Sigma Aldrich, catalog #C1112). Binding data were analyzed using GraphPad Prism (GraphPad Software, Inc. San Diego, Calif.).

T1 sequence (P21554 whole entry): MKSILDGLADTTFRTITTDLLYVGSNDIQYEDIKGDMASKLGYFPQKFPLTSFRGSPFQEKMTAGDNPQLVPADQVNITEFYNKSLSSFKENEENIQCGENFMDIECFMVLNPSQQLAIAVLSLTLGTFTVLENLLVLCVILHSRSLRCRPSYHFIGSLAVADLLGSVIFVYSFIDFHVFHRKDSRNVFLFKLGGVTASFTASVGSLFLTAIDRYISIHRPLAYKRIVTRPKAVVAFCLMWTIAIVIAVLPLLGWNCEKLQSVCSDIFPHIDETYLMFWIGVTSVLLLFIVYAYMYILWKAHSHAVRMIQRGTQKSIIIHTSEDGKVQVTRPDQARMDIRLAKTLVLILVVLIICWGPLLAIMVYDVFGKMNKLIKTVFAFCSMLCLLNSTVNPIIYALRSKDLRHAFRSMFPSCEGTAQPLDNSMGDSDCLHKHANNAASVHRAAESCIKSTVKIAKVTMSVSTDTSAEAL

COc1cc(NC(=O)C(=O)c2c(C)n(Cc3ncc(Cl)cc3F)c3cc(F)c(OC)cc23)ccn1 [Compound 99, 2-(1-((5-chloro-3-fluoropyridin-2-yl)methyl)-6-fluoro-5-methoxy-2-methyl-1H-indol-3-yl)-N-(2-methoxypyridin-4-yl)-2-oxoacetamide] and COc1cc(NC(=O)C(=O)c2c(C)n(Cc3ncc(F)cc3F)c3cc(F)c(OC)cc23)ccn1 [Compound 101, 2-(1-((3,5-difluoropyridin-2-yl)methyl)-6-fluoro-5-methoxy-2-methyl-1H-indol-3-yl)-N-(2-methoxypyridin-4-yl)-2-oxoacetamide] fall in the same range of IC50: 1 to 10 µM for the first, 1 to 10 µM for the second.

Compound COc1ccc2c(c1)c(C(=O)C(=O)Nc1ccnc(OC)c1)c(C)n2Cc1ncc(Cl)cc1OC [Compound 100, 2-(1-((5-chloro-3-methoxypyridin-2-yl)methyl)-5-methoxy-2-methyl-1H-indol-3-yl)-N-(2-methoxypyridin-4-yl)-2-oxoacetamide] has an IC50 of over 10 µM.
